Assay results from ChEMBL document CHEMBL1152529, “Synthesis, antifungal, haemolytic and cytotoxic activities of a series of bis(alkylpyridinium)alkanes” (Bioorg Med Chem, 2009).
Each block holds one compound with its values, some of them ahead of it. Active and inactive are the calls of the source. The calls are words filed in the database; no cut-off is given here.

Assays:
Aspergillus flavus = experiment: Antifungal activity against Aspergillus flavus ATCC 204304 after 48 to 72 hrs by broth microdilution method; type: functional
Pichia kudriavzevii = experiment: Antifungal activity against Candida krusei ATCC 6258 after 48 to 72 hrs by broth microdilution method; type: functional
Candida parapsilosis = experiment: Antifungal activity against Candida parapsilosis ATCC 22019 after 48 to 72 hrs by broth microdilution method; type: functional; conditions: Lodderomyces parapsilosis
[1] = Cytotoxicity against human erythrocytes assessed as hemolysis after 1 hr; type: cell-based, Erythrocyte
[2] = target: Phospholipase A2, major isoenzyme (Sus scrofa, UniProt P00592); experiment: Inhibition of porcine pancreatic PLA2 after 1 hr by radiometric method
Rhizopus arrhizus = experiment: Antifungal activity against Rhizopus oryzae 05-203111 after 48 to 72 hrs by broth microdilution method; type: functional
[3] = tested on: Cryptococcus neoformans var. grubii H99; experiment: Inhibition of lysophospholipase acyltransferase activity of Cryptococcus neoformans var. grubii H99 PLB assessed as formation of radiolabeled dipalmitoyl phosphatidylcholine at 0.25 to 250 uM at pH 4 by radiometric assay
Nakaseomyces glabratus = experiment: Antifungal activity against Candida glabrata 04-202345 after 48 to 72 hrs by broth microdilution method; type: functional
Cryptococcus neoformans = experiment: Antifungal activity against Cryptococcus neoformans ATCC 90112 after 48 to 72 hrs by broth microdilution method; type: functional; conditions: Cryptococcus neoformans, ATCC 90112; for MIC: read-out: MIC
Curvularia australiensis = experiment: Antifungal activity against Bipolaris australiensis 03-201798 after 48 to 72 hrs by broth microdilution method; type: functional
Aspergillus terreus = experiment: Antifungal activity against Aspergillus terreus 05-202844 after 48 to 72 hrs by broth microdilution method; type: functional
Exophiala spinifera = experiment: Antifungal activity against Exophiala spinifera 03-200803 after 48 to 72 hrs by broth microdilution method; type: functional
MDCK = experiment: Cytotoxicity against MDCK cells after 3 hrs by MTS assay; type: cell-based; conditions: Canis lupus familiaris
Lomentospora prolificans = experiment: Antifungal activity against Scedosporium prolificans 05-203060 after 48 to 72 hrs by broth microdilution method; type: functional
Candida albicans = experiment: Antifungal activity against Candida albicans ATCC 10231 after 48 to 72 hrs by broth microdilution method; type: functional; conditions: Candida albicans, ATCC 10231; for MIC: read-out: MIC
Scedosporium apiospermum = experiment: Antifungal activity against Scedosporium apiospermum 05-203100 after 48 to 72 hrs by broth microdilution method; type: functional
[4] = Inhibition of phospholipid fatty acyl chain hydrolysis activity of Cryptococcus neoformans var. grubii H99 PLB assessed as formation of radiolabeled free fatty acid at pH 4 by radiometric assay
Aspergillus fumigatus = experiment: Antifungal activity against Aspergillus fumigatus ATCC 204305 after 48 to 72 hrs by broth microdilution method; type: functional
A549 = experiment: Cytotoxicity against human A549 cells after 3 hrs by MTS assay; type: cell-based; conditions: A549, 3 h
[5] = tested on: Cryptococcus neoformans var. grubii H99; experiment: Inhibition of lysophospholipid fatty acyl chain hydrolysis activity of Cryptococcus neoformans var. grubii H99 PLB assessed as formation of radiolabeled free fatty acid at 0.25 to 250 uM at pH 4 by radiometric assay
[6] = Solubility at 50 uM; type: physicochemical

Sequence of Phospholipase A2, major isoenzyme (P00592 whole entry): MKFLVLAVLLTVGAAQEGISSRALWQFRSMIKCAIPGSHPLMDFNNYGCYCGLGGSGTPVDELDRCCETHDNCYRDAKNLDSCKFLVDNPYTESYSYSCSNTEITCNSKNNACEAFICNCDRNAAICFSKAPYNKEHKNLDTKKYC

Compound: CCCCCc1cc[n+](CCCCCCCCCCCC[n+]2ccc(CCCCC)c(CCCCC)c2)cc1CCCCC
MFC (Aspergillus flavus): 22 µM
MIC (Aspergillus flavus): 11 µM
MFC (Pichia kudriavzevii): 2.7 µM
MIC (Pichia kudriavzevii): 2.7 µM
MFC (Candida parapsilosis): 2.7 µM
MIC (Candida parapsilosis): 2.7 µM
HC50 at 1 h [1]: 17.5 µM
IC50 [2]: 52 µM
MFC (Rhizopus arrhizus): 2.7 µM
MIC (Rhizopus arrhizus): 2.7 µM
Activity [3]: inactive
MFC (Nakaseomyces glabratus): 1.4 µM
MIC (Nakaseomyces glabratus): 1.4 µM
MFC (Cryptococcus neoformans): 1.4 µM
MIC (Cryptococcus neoformans): 1.4 µM
MFC (Curvularia australiensis): 2.7 µM
MIC (Curvularia australiensis): 2.7 µM
MFC (Aspergillus terreus): 2.7 µM
MIC (Aspergillus terreus): 1.4 µM
MFC (Exophiala spinifera): 2.7 µM
MIC (Exophiala spinifera): 2.7 µM
IC50 (MDCK): 70 µM
MFC (Lomentospora prolificans): 5.5 µM
MIC (Lomentospora prolificans): 2.7 µM
MFC (Candida albicans): 2.7 µM
MIC (Candida albicans): 2.7 µM
MFC (Scedosporium apiospermum): 5.5 µM
MIC (Scedosporium apiospermum): 5.5 µM
IC50 [4]: 4 µM
MFC (Aspergillus fumigatus): 22 µM
MIC (Aspergillus fumigatus): 11 µM
IC50 (A549): 45 µM
Activity [5]: inactive

IC50 [2]: 56 µM
Activity [3]: inactive
MIC (Cryptococcus neoformans): 5.5 µM
MIC (Candida albicans): 2.7 µM
IC50 [4]: 47 µM
Activity [5]: inactive
Compound: C=CCCCc1cc[n+](CCCCCCCCCCCC[n+]2ccc(CCCC=C)cc2)cc1
HC50 at 1 h [1]: > 350 µM
IC50 (MDCK): > 350 µM
IC50 (A549): > 350 µM

IC50 [2]: > 250 µM
Activity [3]: inactive
MIC (Cryptococcus neoformans): 88 µM
MIC (Candida albicans): 88 µM
IC50 [4]: > 250 µM
Activity [5]: inactive
Compound: OCCCc1cc[n+](CCCCCCCCCCCC[n+]2ccc(CCCO)cc2)cc1
HC50 at 1 h [1]: > 350 µM
IC50 (MDCK): > 350 µM
IC50 (A549): > 350 µM

MIC (Cryptococcus neoformans): 2.7 µM
MIC (Candida albicans): 2.7 µM
Compound: CCCCC(CCCC)c1cc[n+](CCCCCCCCCCCC[n+]2ccc(C(CCCC)CCCC)c(C)c2)cc1C
HC50 at 1 h [1]: 31 µM
IC50 (MDCK): 10 µM
IC50 (A549): 10 µM

Compound: CCCCCc1cc[n+](CCCCCCCCCCCC[n+]2ccc(CCCCC)c(C)c2)cc1C
HC50 at 1 h [1]: > 350 µM
IC50 [2]: 134 µM
Activity [3]: inactive
MIC (Cryptococcus neoformans): 1.4 µM
IC50 (MDCK): 145 µM
MIC (Candida albicans): 2.7 µM
IC50 [4]: 8 µM
IC50 (A549): 122 µM
Activity [5]: inactive

MIC (Cryptococcus neoformans): 1.4 µM
MIC (Candida albicans): 2.7 µM
Compound: CCCCCc1cc[n+](CCCCCCCCCCCC[n+]2ccc(CCCCC)cc2)cc1

Compound: CCCCCc1cccc[n+]1CCCCCCCCCCCC[n+]1ccccc1CCCCC
HC50 at 1 h [1]: > 350 µM
MIC (Cryptococcus neoformans): 2.7 µM
IC50 (MDCK): 315 µM
MIC (Candida albicans): 2.7 µM
IC50 (A549): > 350 µM

Compound: CCc1cc[n+](CCCCCCCCCCCC[n+]2ccc(CC)cc2)cc1
IC50 [2]: > 250 µM
Activity [3]: inactive
MIC (Cryptococcus neoformans): 44 µM
IC50 (MDCK): > 350 µM
MIC (Candida albicans): 11 µM
IC50 [4]: 138 µM
IC50 (A549): > 350 µM
Activity [5]: inactive

Compound: CN1CCC[C@H]1c1ccc[n+](CCCCCCCCCCCC[n+]2cccc([C@@H]3CCCN3C)c2)c1.[Br-].[Br-]
MIC (Cryptococcus neoformans): > 50 µM
solubility [6]: Insoluble
MIC (Candida albicans): > 50 µM

MIC (Cryptococcus neoformans): 88 µM
MIC (Candida albicans): 88 µM
Compound: OCc1cc[n+](CCCCCCCCCCCC[n+]2ccc(CO)cc2)cc1

IC50 [2]: > 250 µM
Activity [3]: inactive
MIC (Cryptococcus neoformans): 88 µM
MIC (Candida albicans): 44 µM
IC50 [4]: > 250 µM
Activity [5]: inactive
Compound: c1cc[n+](CCCCCCCCCCCC[n+]2ccccc2)cc1
HC50 at 1 h [1]: > 350 µM

MIC (Cryptococcus neoformans): 2.7 µM
MIC (Candida albicans): 5.5 µM
Compound: CC(C)(C)CCc1cc[n+](CCCCCCCCCCCC[n+]2ccc(CCC(C)(C)C)cc2)cc1
HC50 at 1 h [1]: > 350 µM
IC50 (MDCK): 135 µM
IC50 (A549): 105 µM

Compound: CCCCC(CCCC)c1cc[n+](CCCCCCCCCCCC[n+]2ccc(C(CCCC)CCCC)cc2)cc1
HC50 at 1 h [1]: 124 µM
IC50 [2]: 53 µM
Activity [3]: inactive
MIC (Cryptococcus neoformans): 1.4 µM
IC50 (MDCK): 56 µM
MIC (Candida albicans): 1.4 µM
IC50 [4]: 5 µM
IC50 (A549): 55 µM
Activity [5]: inactive

IC50 [2]: > 250 µM
Activity [3]: inactive
MIC (Cryptococcus neoformans): 2.7 µM
MIC (Candida albicans): 2.7 µM
IC50 [4]: 11 µM
Activity [5]: inactive
Compound: CC(C)CCCc1cc[n+](CCCCCCCCCCCC[n+]2ccc(CCCC(C)C)cc2)cc1
HC50 at 1 h [1]: 227 µM
IC50 (MDCK): 62 µM
IC50 (A549): 54 µM
